Columns and labels:
[1] = Platinum in the kidneys after injection; type: in vivo; conditions: 20 days after injection
Source text: A pharmaceutical agent comprising cis-diammoniumdichloro-trans-dihydroxoplatinum(IV) and/or its salts or derivatives incorporated in the base materials defined according to the invention enables effective treatment of tumors. […] In a particularly preferred fashion, salts are used, especially potassium, lithium, sodium, magnesium, barium, zinc, manganese, silver, copper, vanadium or calcium salts, wherein the anions can be e.g. chlorides, sulfates, phosphates, nitrates or carbonates or others. Other elements capable of forming salts are well-known to those skilled in the art, e.g. all elements from the main groups I to V of the Periodic Table of the Elements, as well as the elements from the subgroups I to VIII; all of the above-mentioned elements of the Periodic Table of the Elements can form cis-oxoplatinum salts.

10 cell lines = test: Formazan test, mean over 10 cell lines (Table 4); type: cell-based, human; conditions: mean ±SEM over the 10 cell lines of Table 4
Procedure: (§1) The effect of cis-oxoplatin Ca and cis-oxoplatin was compared on 10 cell lines (Table 4).
(§2) (IC50 values specified in μg/ml; the test was performed as a formazan test).

SW480 Colon = test: Formazan test, cis-oxoplatin vs cis-oxoplatin Ca; type: cell-based, human; conditions: Table 4, formazan test
Procedure: as §1, §2

BT20 Breast = test: Formazan test, cis-oxoplatin vs cis-oxoplatin Ca; type: cell-based, human; conditions: Table 4, formazan test
Procedure: as §1, §2

BxPC3 Pancreas = test: Formazan test, cis-oxoplatin vs cis-oxoplatin Ca; type: cell-based, human; conditions: Table 4, formazan test
Procedure: as §1, §2

Du145 Prostate = test: Formazan test, cis-oxoplatin vs cis-oxoplatin Ca; type: cell-based, human; conditions: Table 4, formazan test
Procedure: as §1, §2

Colo205 Colon = test: Formazan test, cis-oxoplatin vs cis-oxoplatin Ca; type: cell-based, human; conditions: Table 4, formazan test
Procedure: as §1, §2

T47D Breast = test: Formazan test, cis-oxoplatin vs cis-oxoplatin Ca; type: cell-based, human; conditions: Table 4, formazan test
Procedure: as §1, §2

HT29 Colon = test: Formazan test, cis-oxoplatin vs cis-oxoplatin Ca; type: cell-based, human; conditions: Table 4, formazan test
Procedure: as §1, §2

MDA-MB-435 Breast = test: Formazan test, cis-oxoplatin vs cis-oxoplatin Ca; type: cell-based, human; conditions: Table 4, formazan test
Procedure: as §1, §2

CRO2B Carcinoid = test: Formazan test, cis-oxoplatin vs cis-oxoplatin Ca; type: cell-based, human; conditions: Table 4, formazan test
Procedure: as §1, §2

CaCo-2 Colon = test: Formazan test, cis-oxoplatin vs cis-oxoplatin Ca; type: cell-based, human; conditions: Table 4, formazan test
Procedure: as §1, §2

panel of cell lines = test: Cytotoxic activity of TRAXO, summary over 19 cell lines; type: cell-based, human; conditions: for sensitivity of cell lines: T-47D and BxPC3
Procedure: trans-Oxoplatin was tested on a panel of cell lines, using double steps and an initial concentration of 40 μg/ml. As the IC50 values were not reached in most cases, cell survival at the highest concentration is indicated.
Cell lines sensitive to cis-oxoplatin, such as T-47D and BxPC3, are non-sensitive to TRAXO. The salts of the trans-oxoplatin compounds may have a different therapeutic potential and different effectiveness against particular human cancer cells, cell lines and tumors.

[2] = test system: tumor rats developing both internal and external tumors; test: Therapeutic effect of tablets, ointments and infusion solutions in tumor rats; type: in vivo
Procedure: In a first test series, tablets, ointments and infusion solutions were tested on various tumor rats developing both internal and external tumors. The other drugs according to the invention were tested in additional, subsequent test series. […] In a preparation of 5 mg/ml solution, the infusion solution included 5 mg of cis-oxoplatin, 9 mg of benzyl alcohol, 2 mg of Polysorbate 80, 650 mg of 70% sorbitol solution, and 500 mg of water.
The tablets were administered in the form of a feed admixture. Infusion of the infusion solution was effected according to common laboratory practice via infusion tube.
Tumor effectiveness was established by weight determination and measuring the outer areas of degenerate tissue. As a comparison, the tumor effectiveness was also tested using an infusion solution comprising oxoplatin in sodium chloride solution and by means of direct oral administration of oxoplatin and by applying oxoplatin powder placed on the tumor area on the back of the laboratory animal by means of a bandage. Furthermore, tablets comprising cis-oxoplatin and sodium hydrogen carbonate or sodium alginate were tested.

α-chymotrypsin = test: Protease inhibition; type: biochemical; conditions: at concentrations comparable to cisplatin
Source text: (§3) The pharmaceutical agents according to the invention, which can be produced using said kit, are capable of binding directly to a DNA. The cis-platinum compounds according to the invention have an octahedral configuration. Consequently, cis-oxoplatin in the meaning of the invention can form both intra- and inter-strand DNA complexes. Due to the specific structure of cis-oxoplatin, in contrast to cisplatin, the compounds of the invention form multiple bonds with DNA strands. Owing to the inter-strand-crosslinker complexes and intra-strand-crosslinker complexes, the compounds of the invention show advantageous specific cytostatic effects in anti-tumor therapy. The DNA adducts of the compounds according to the invention show higher charge of the platinum central atom and further have two additional ligands bound to this center. […] Potency and effectiveness of the inventive pharmaceutical agents comprising cis-oxo-platinum(IV) are largely independent of the form of application of the agents. The agents can be administered perorally, orally, rectally, subcutaneously, intramuscularly, intravenously and intraperitoneally.

trypsin = target: T1, trypsin (Bos taurus, UniProt P00760); test: Protease inhibition; type: biochemical; conditions: at concentrations comparable to cisplatin
T1 construct: gene PRSS1
T1 sequence (P00760 24-246): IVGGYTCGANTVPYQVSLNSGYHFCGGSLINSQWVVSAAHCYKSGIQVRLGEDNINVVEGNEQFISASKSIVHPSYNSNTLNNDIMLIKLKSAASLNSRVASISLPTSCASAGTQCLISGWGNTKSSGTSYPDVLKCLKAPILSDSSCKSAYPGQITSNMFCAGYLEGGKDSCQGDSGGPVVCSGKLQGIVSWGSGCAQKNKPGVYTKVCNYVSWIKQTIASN
Source text: as §3

various human cell lines = test: Growth inhibition tests, overall comparison (Table 1 panel); type: cell-based
Procedure: (§4) Growth inhibition tests on various human cell lines show the different activities of cisplatin, cis-oxoplatin and oxaliplatin. […] The following Table illustrates the results produced with cisplatin, oxoplatin, carboplatin and oxaliplatin (the values specified are IC50 values in μg/ml, i.e., the concentration where 50% of the cells survive, nd=not determined; res=resistant=non-sensitive or IC50 value cannot be determined at a concentration of up to 40 μg/ml; IC=inhibition concentration).

[3] = test system: HT29, SW480, SK-OV4, PC3, SIM, CaCo-2, DU145 and CRO2B cells; test: Growth inhibition, cis-oxoplatin vs sodium salt, summary over cell lines (Table 2); type: cell-based, human; conditions: CaCo-2, DU145, CRO2B
Procedure: as §4
The activities differ according to the cell line.

Structure (SMILES)	level of platinum compound in the kidneys [1]	IC50 (SW480 Colon) [µg/mL]	IC50 (BT20 Breast) [µg/mL]	IC50 (BxPC3 Pancreas) [µg/mL]	IC50 (Du145 Prostate) [µg/mL]	IC50 (Colo205 Colon) [µg/mL]	IC50 (T47D Breast) [µg/mL]	IC50 (HT29 Colon) [µg/mL]	IC50 (MDA-MB-435 Breast) [µg/mL]	IC50 (CRO2B Carcinoid) [µg/mL]	IC50 (CaCo-2 Colon) [µg/mL]	sensitivity of cell lines (panel of cell lines)	further results
N.N.[Cl][Pt][Cl] [Cis-platin, cisplatin, reference compound]	approximately as high as one hour following injection												
N.N.N.N.[Ca+2].[O-][Pt]([OH])([Cl])[Cl].[O-][Pt]([OH])([Cl])[Cl] [Oxoplatin Ca, cis-oxoplatin calcium salt]		2.5	3.5	30.0	14.5	13.5	3.6	8.0	12.0	2.20	0.87		IC50 (±SEM) mean value for all cell lines (10 cell lines): 9.1 ± 2.8 µg/mL
[NH2][Pt]([NH2])([OH])([OH])([Cl])[Cl] [TRAXO, trans-Oxoplatin]												non-sensitive	activity against cell lines (panel of cell lines; SW 620, G-292, HOS, ACHN, HL-60, WI-38): considerable activity
N.N.[Cl-].[Cl-].[OH-].[OH-].[Pt+4] [cis-Oxoplatin, cis-diammoniumdichloro-trans-dihydroxoplatinum(IV)]	largely free of said compound	8.2	3.75	26.0	19.0	29.0	2.5	13.5	16.5	3.0	1.52	sensitive	elimination [2]: rapidly eliminated; irritations in the surrounding tissue [2]: irritations in the surrounding tissue; tumor growth ([2]; no base materials): reduction of tumor growth; inhibition of proteases (α-chymotrypsin): does not inhibit; inhibition of proteases (trypsin): does not inhibit; activity compared with oxaliplatin and carboplatin (various human cell lines): activity similar to that of oxaliplatin, but higher activity than carboplatin; IC50 values of these cells (mean) [3]: 10.5 ± 6.4 µg/mL

From patent US7749534B2, “Pharmaceutical composition comprising oxoplatin, the salts and derivatives thereof” (Riemser Arzneimittel AG, priority 2003, dated 2010)
